According to US20090062338A1, “[…] USE IN TREATING OR PREVENTING CARDIOVASCULAR DISEASE” (priority 2005, published 2009):

How the values were obtained:
hepatocyte growth factor [1] = assay: Gene expression in cardiac tissue of mice fed Tempol, chip-based microarray; assay type: in vivo; settings: 5 mg/g of food from 14 to 31 months of age
Method: To assess the effects of Tempol on gene expression, Tempol was administered to experimental mice at a dose of 5 mg/g of food from 14 months to 31 months after birth. Mice receiving the same food without the addition of Tempol were used as a negative control. At the age of 31 months, the experimental animals were sacrificed and the hearts were surgically removed. The expression of a broad spectrum of genes in the cardiac tissue was assessed using chip-based microarray technology. Such chips are well known in the art and are widely used to assess gene expression.

[2] = test system: Adiponectin, C1Q and collagen domain containing; assay: Gene expression in adipose tissue of mice fed Tempol, Affymetrix MOE430A 2.0 array; assay type: in vivo; settings: 5 g/kg of diet from 12 through 15 months
Method: (§1) In a further gene expression study, Tempol was administered to experimental mice at a dose of 5 g/kg of diet from 12 months through 15 months. Mice receiving the same diet without the addition of Tempol were used as a negative control. At the age of 15 months, the adipose tissue of the experimental animals was obtained. The expression of a broad spectrum of genes in the adipose tissue was assessed using chip-based microarray technology. Specifically, in this case an Affymetrix MOE430A 2.0 array, containing 12,960 genes, was employed. Such chips are well known in the art and are widely used to assess gene expression.

Caspase 3 [3] = assay: as above; assay type: in vivo; settings: 5 g/kg of diet from 12 through 15 months
Method: as §1

adiponectin = assay: Protein level in patient after Tempol treatment; assay type: in vivo, human; settings: 1500 mg per day for 180 days
Method: (§2) A 70-kilogram patient three days post myocardial infarction is administered a dose of 1500 mg of Tempol per day for 180 days. This may be administered in a single dose, or may be administered as a number of smaller doses over a 24-hour period: for example, three 500-mg doses at eight-hour intervals. Following treatment, the protein level of hepatocyte growth factor and adiponectin in the plasma is increased, and the protein level of caspase 3 is decreased.
(§3) A 70-kilogram patient at risk for myocardial infarction is administered a dose of 1500 mg of Tempol per day for 180 days. This may be administered in a single dose, or may be administered as a number of smaller doses over a 24-hour period: for example, three 500-mg doses at eight-hour intervals. Following treatment, the protein level of hepatocyte growth factor and adiponectin in the plasma is increased, and the protein level of caspase 3 is decreased.

caspase 3 [4] = assay: Protein level in patient after Tempol treatment; assay type: in vivo, human; settings: 1500 mg per day for 180 days
Method: as §2, §3

hepatocyte growth factor [5] = assay: Protein level in patient after Tempol treatment; assay type: in vivo, human; settings: 1500 mg per day for 180 days
Method: as §2, §3

endothelium = settings: angiotensin II infused rats, introduction of Tempol; cited from earlier work
[6] = Example 1: 70-kg patient three days post myocardial infarction
[7] = Example 2: 70-kg patient at risk for myocardial infarction

CC1(C)CC(O)CC(C)(C)N1[O] [Tempol, 4-hydroxy-2,2,6,6-tetramethylpiperidine-1-oxyl]
HGF expression, fold change (increase) vs control mice (hepatocyte growth factor [1]): 3.2 fold
HGF (ORF W12681) expression, TEMPOL-treated mouse tp51 (hepatocyte growth factor [1]; microarray signal): 152
HGF (ORF W12681) expression, TEMPOL-treated mouse tp52 (hepatocyte growth factor [1]; microarray signal): 151
HGF (ORF W12681) expression, TEMPOL-treated mouse tp53 (hepatocyte growth factor [1]; microarray signal): 207
Adiponectin expression, fold change (increase) vs control mice [2]: 1.22 fold
Adiponectin expression, mean (Tempol-treated mice) ([2]; microarray signal): 33876
Caspase 3 expression, mean (Tempol-treated mice) (Caspase 3 [3]; microarray signal): 414
Caspase 3 expression, fold change vs control mice (signed) (Caspase 3 [3]; negative = decrease): −1.47 fold
Caspase 3 expression, fold decrease vs control mice (Caspase 3 [3]; stated as decreased): 1.47 fold
Protein level of adiponectin in the plasma (adiponectin; [6]): increased
Protein level of adiponectin in the plasma (adiponectin; [7]): increased
Protein level of caspase 3 (caspase 3 [4]; [6]): decreased
Protein level of caspase 3 (caspase 3 [4]; [7]): decreased
Protein level of hepatocyte growth factor in the plasma (hepatocyte growth factor [5]; [6]): increased
Protein level of hepatocyte growth factor in the plasma (hepatocyte growth factor [5]; [7]): increased
Deleterious effects of angiotensin II on the endothelium (endothelium): ameliorated
